In general, MIC refers to the lowest concentration that inhibits growth of the organism.

Values after ≈ are worked out from the molar mass of the structure shown. Bounds are passed on as bounds.

Results on seven compounds are retold here after ChEMBL document CHEMBL1134705, “Synthesis and antimicrobial activity of new 3 alpha-hydroxy-23,24-bisnorcholane polyamine carbamates” (2001).

The subject of test [1] is Bacillus subtilis. Briefly: Evaluated for its in vitro antimicrobial activity against Bacillus subtilis (6633). It counts as functional.
In test [2] the test system is Escherichia coli. Put plainly: Evaluated for its antimicrobial activity against Escherichia coli (25922). It counts as functional.
In test [3] the test system is Klebsiella pneumoniae. Briefly: Evaluated for its antimicrobial activity against Klebsiella pneumoniae (10031). In kind it is functional.
In test [4] the test system is Proteus mirabilis. Briefly: Evaluated for its antimicrobial activity against Proteus mirabilis (25933). In kind it is functional.
Test [5] deals with Pseudomonas aeruginosa. Put plainly: Evaluated for its antimicrobial activity against Pseudomonas aeruginosa (27853). It counts as functional.
In test [6] the test system is Salmonella typhimurium. Put plainly: Evaluated for its antimicrobial activity against Salmonella Typhimurium (14028). In kind it is functional, Salmonella enterica subsp. enterica serovar Typhimurium. The following applies: Salmonella enterica.
Test [7] deals with Staphylococcus aureus. Briefly: Evaluated for its in vitro antimicrobial activity against Staphylococcus aureus (6538p). It counts as functional.
The subject of test [8] is Serratia marcescens. Briefly: Evaluated for its antimicrobial activity against Serratia marcescens (27117). It counts as functional.
Test [9] can be described thus: Evaluated for its in vitro antimicrobial activity against Staphylococcus equisimilis (6580C). It counts as functional.
Test [10] is described as follows: In vitro minimal hemolytic activity was determined. In kind it is functional.
Test [11] concerns Micrococcus luteus. Put plainly: Evaluated for its antimicrobial activity against Micrococcus luteus (9341). It counts as functional.

In the case of `C[C@H](COC(=O)NCCCNCCCCN)[C@H]1CC[C@H]2[C@@H]3CC[C@H]4C[C@H](O)CC[C@]4(C)[C@H]3CC[C@]12C`, the MIC in [1] is 6.25 µg/mL (≈ 12.4 µM); in test [2], greater than 100 µg/mL; in test [3], 1.56 µg/mL (≈ 3.08 µM); in [4] it was greater than 100 µg/mL; in test [5] it was greater than 100 µg/mL; in test [6], 12.5 µg/mL (≈ 24.7 µM). Moreover, the MIC in [7] is 3.13 µg/mL (≈ 6.19 µM); in test [8], greater than 100 µg/mL; in test [9] it was 12.5 µg/mL (≈ 24.7 µM); in [11], 3.13 µg/mL (≈ 6.19 µM). In test [10], this compound registered an MHC of 25 µg/mL.
Consider `C[C@H](COC(=O)NCCCNCCCCN)[C@H]1CC[C@H]2[C@@H]3CC[C@@H]4C[C@H](O)CC[C@]4(C)[C@H]3CC[C@]12C`, for which the minimum inhibitory concentration (MIC) in test [1] is 3.13 µg/mL (≈ 6.19 µM); in test [2] it was 25 µg/mL (≈ 49.4 µM); in test [3], 3.13 µg/mL (≈ 6.19 µM); in test [4] it was greater than 100 µg/mL; in [5], greater than 100 µg/mL; in test [6], 12.5 µg/mL (≈ 24.7 µM). Moreover, the MIC in [7] was 0.78 µg/mL (≈ 1.54 µM); in test [8], greater than 100 µg/mL; in [9], 3.13 µg/mL (≈ 6.19 µM); in [11], 1.56 µg/mL (≈ 3.08 µM). Moreover, in test [10], the MHC amounted to 25 µg/mL.
As for `C[C@H](COC(=O)NCCCNCCCCNCCC[N+](C)(C)C)[C@H]1CC[C@H]2[C@@H]3CC[C@@H]4C[C@H](O)CC[C@]4(C)[C@H]3CC[C@]12C`, the MIC in test [1] is 1.56 µg/mL; in test [2], 12.5 µg/mL; in test [3], greater than 100 µg/mL; in [4] it was greater than 100 µg/mL; in test [5], 3.13 µg/mL; in test [6], 12.5 µg/mL. For the same compound, the minimal inhibitory concentration (MIC) is 0.78 µg/mL in test [7], greater than 100 µg/mL in [8], 1.56 µg/mL in [9] and 1.56 µg/mL in test [11]. The compound also returned an MHC in [10] of 25 µg/mL.
Take `C[C@H](COC(=O)NCCCNCCCCN)[C@H]1CC[C@H]2[C@@H]3[C@H](F)C[C@H]4C[C@H](O)CC[C@]4(C)[C@H]3CC[C@]12C`: the MIC in test [1] is 3.13 µg/mL (≈ 5.98 µM); in test [2], 12.5 µg/mL (≈ 23.9 µM); in [3], 12.5 µg/mL (≈ 23.9 µM); in test [4] it was greater than 100 µg/mL; in test [5], 12.5 µg/mL (≈ 23.9 µM); in test [6], greater than 100 µg/mL. The MIC in [7] is 3.13 µg/mL (≈ 5.98 µM); in [8] it was greater than 100 µg/mL; in test [9], 6.25 µg/mL (≈ 11.9 µM); in test [11], 3.13 µg/mL (≈ 5.98 µM). Besides, in test [10], the MHC came to 50 µg/mL.
As for `C[C@H](COC(=O)NCCCNCCCCNCCC[N+](C)(C)C)[C@H]1CC[C@H]2[C@@H]3CC[C@H]4C[C@H](O)CC[C@]4(C)[C@H]3CC[C@]12C`, the MIC was 1.56 µg/mL in test [1]; 6.25 µg/mL in test [2]; 6.25 µg/mL in test [3]; greater than 100 µg/mL in test [4]; 25 µg/mL in test [5]; greater than 100 µg/mL in test [6]. For the same compound, the MIC in test [7] is 1.56 µg/mL; in [8] it was greater than 100 µg/mL; in test [9], 1.56 µg/mL; in test [11] it was 3.13 µg/mL. The compound further came in with an MHC in test [10] of 25 µg/mL.
As to `C[C@H](COC(=O)NCCCNCCCCN)[C@H]1CC[C@H]2[C@@H]3[C@H](O)C[C@H]4C[C@H](O)CC[C@]4(C)[C@H]3CC[C@]12C`, the minimum inhibitory concentration (MIC) in test [1] was 6.25 µg/mL (≈ 12 µM); in test [2], 50 µg/mL (≈ 95.8 µM); in [3], greater than 100 µg/mL; in test [4], greater than 100 µg/mL; in test [5], 25 µg/mL (≈ 47.9 µM); in test [6], greater than 100 µg/mL. The MIC in [7] was 3.13 µg/mL (≈ 6 µM); in test [8] it was greater than 100 µg/mL; in test [9], 12.5 µg/mL (≈ 24 µM); in [11], 3.13 µg/mL (≈ 6 µM). Also, in test [10], the MHC was found to be 100 µg/mL.
Consider `CC(C)[C@@H](CC[C@@H](C)[C@H]1CC[C@H]2[C@@H]3[C@H](O)C[C@H]4C[C@@H](NCCCNCCCCN)CC[C@]4(C)[C@H]3CC[C@]12C)OS(=O)(=O)O` [SQUALAMINE], for which the MIC in test [1] is 3.13 µg/mL (≈ 4.98 µM); in test [2], greater than 100 µg/mL; in test [3], 12.5 µg/mL (≈ 19.9 µM); in test [4], greater than 100 µg/mL; in test [5], greater than 100 µg/mL; in test [6] it was greater than 100 µg/mL. Moreover, the MIC is 6.25 µg/mL (≈ 9.95 µM) in test [7], greater than 100 µg/mL in [8], 3.13 µg/mL (≈ 4.98 µM) in test [9] and 3.13 µg/mL (≈ 4.98 µM) in test [11].
